{
  "source": "paper PMC5218480",
  "about": "(PLoS ONE, 2017)",
  "test_system": "MV-4-11 cells",
  "experiment": "Gene expression microarray analysis (Affymetrix PrimeView) and GSEA",
  "type": "cell-based, human",
  "parameters": "RFU PODN (11730768_x_at) / Fold change /veh PODN (11730768_x_at) / RFU LINC00158 (11744669_a_at) / Fold change /veh LINC00158 (11744669_a_at) / RFU DUSP10 (11751237_a_at) / Fold change /veh DUSP10 (11751237_a_at) / RFU ID3 (11757404_x_at) / Fold change /veh ID3 (11757404_x_at) / RFU PLEKHG5 (11737974_s_at) / Fold change /veh PLEKHG5 (11737974_s_at) / RFU LRRC4B (11730491_at) / Fold change /veh LRRC4B (11730491_at) / RFU GIMAP4 (11747438_a_at) / Fold change /veh GIMAP4 (11747438_a_at) / RFU KRT8 (11758183_x_at) / Fold change /veh KRT8 (11758183_x_at) / RFU CNN1 (11734310_a_at) / Fold change /veh CNN1 (11734310_a_at) / RFU VPS37D (11726825_at) / Fold change /veh VPS37D (11726825_at) / RFU C10orf10 (11716522_x_at) / Fold change /veh C10orf10 (11716522_x_at) / RFU KIR2DL2 /// KIR2DL4 /// KIR2DL5A /// KIR2DL5B /// KIR2DS1 /// KIR2DS2 /// KIR2DS3 /// KIR2DS4 /// KIR3DL3 /// KIR3DL3 /// KIR3DS1 (11738374_at) / Fold change /veh KIR2DL2 /// KIR2DL4 /// KIR2DL5A /// KIR2DL5B /// KIR2DS1 /// KIR2DS2 /// KIR2DS3 /// KIR2DS4 /// KIR3DL3 /// KIR3DL3 /// KIR3DS1 (11738374_at) / RFU C1QL1 (11718748_at) / Fold change /veh C1QL1 (11718748_at) / RFU TMPRSS4 (11747572_a_at) / Fold change /veh TMPRSS4 (11747572_a_at) / RFU HAMP (11756126_x_at) / Fold change /veh HAMP (11756126_x_at) / RFU RNFT2 (11725882_a_at) / Fold change /veh RNFT2 (11725882_a_at) / RFU NR4A2 (11747474_a_at) / Fold change /veh NR4A2 (11747474_a_at) / RFU ABCC12 (11746883_a_at) / Fold change /veh ABCC12 (11746883_a_at) / RFU TMEM136 (11760407_x_at) / Fold change /veh TMEM136 (11760407_x_at) / RFU CLDN22 /// WWC2 (11732394_at) / Fold change /veh CLDN22 /// WWC2 (11732394_at) / RFU HLA-DPB1 (11760878_x_at) / Fold change /veh HLA-DPB1 (11760878_x_at) / RFU SPINT1 (11716480_a_at) / Fold change /veh SPINT1 (11716480_a_at) / RFU GAP43 (11754022_s_at) / Fold change /veh GAP43 (11754022_s_at) / RFU A4GNT (11735810_at) / Fold change /veh A4GNT (11735810_at) / RFU PRB3 (11715151_x_at) / Fold change /veh PRB3 (11715151_x_at) / RFU TUBB4B (11761932_at) / Fold change /veh TUBB4B (11761932_at) / RFU CAPN14 (11732068_a_at) / Fold change /veh CAPN14 (11732068_a_at) / RFU TMCC2 (11721928_a_at) / Fold change /veh TMCC2 (11721928_a_at) / RFU IRGQ (11745062_a_at) / Fold change /veh IRGQ (11745062_a_at) / RFU FAM174B (11720279_a_at) / Fold change /veh FAM174B (11720279_a_at) / RFU TMPRSS4 (11748680_a_at) / Fold change /veh TMPRSS4 (11748680_a_at) / RFU FAM212B (11763350_a_at) / Fold change /veh FAM212B (11763350_a_at) / RFU PLEKHG5 (11743358_a_at) / Fold change /veh PLEKHG5 (11743358_a_at) / RFU ZSCAN30 (11745921_a_at) / Fold change /veh ZSCAN30 (11745921_a_at) / RFU CMKLR1 (11741424_a_at) / Fold change /veh CMKLR1 (11741424_a_at) / RFU LOC101060620 /// MAPK8IP1 (11723275_at) / Fold change /veh LOC101060620 /// MAPK8IP1 (11723275_at) / RFU SPTSSB (11747773_x_at) / Fold change /veh SPTSSB (11747773_x_at) / RFU PRSS12 (11739890_at) / Fold change /veh PRSS12 (11739890_at) / RFU BIN1 (11741810_x_at) / Fold change /veh BIN1 (11741810_x_at) / RFU WNT11 (11732464_a_at) / Fold change /veh WNT11 (11732464_a_at) / RFU C10orf10 (11716521_a_at) / Fold change /veh C10orf10 (11716521_a_at) / RFU C5orf56 (11738089_at) / Fold change /veh C5orf56 (11738089_at) / RFU CYB561 (11721691_x_at) / Fold change /veh CYB561 (11721691_x_at) / RFU ANKRD19P (11752326_a_at) / Fold change /veh ANKRD19P (11752326_a_at) / RFU OR2T12 /// OR2T33 /// OR2T8 (11738714_s_at) / Fold change /veh OR2T12 /// OR2T33 /// OR2T8 (11738714_s_at) / RFU VCAN (11748164_a_at) / Fold change /veh VCAN (11748164_a_at) / RFU JSRP1 (11732532_at) / Fold change /veh JSRP1 (11732532_at) / RFU KRTAP10-11 (11738290_x_at) / Fold change /veh KRTAP10-11 (11738290_x_at) / RFU MYO3A (11730013_a_at) / Fold change /veh MYO3A (11730013_a_at) / RFU EBF3 (11725865_a_at) / Fold change /veh EBF3 (11725865_a_at) / RFU CAMK2N1 (11719241_x_at) / Fold change /veh CAMK2N1 (11719241_x_at) / RFU C5orf56 (11738088_a_at) / Fold change /veh C5orf56 (11738088_a_at) / RFU OLFML3 (11715873_a_at) / Fold change /veh OLFML3 (11715873_a_at) / RFU LOC100653217 /// NTM (11731650_a_at) / Fold change /veh LOC100653217 /// NTM (11731650_a_at) / RFU MAPK11 (11762145_a_at) / Fold change /veh MAPK11 (11762145_a_at) / RFU FIZ1 (11724087_x_at) / Fold change /veh FIZ1 (11724087_x_at) / RFU OASL (11726364_x_at) / Fold change /veh OASL (11726364_x_at) / RFU SOX15 (11748057_x_at) / Fold change /veh SOX15 (11748057_x_at) / RFU CD79A (11719716_a_at) / Fold change /veh CD79A (11719716_a_at) / RFU HIST1H1D (11736915_at) / Fold change /veh HIST1H1D (11736915_at) / RFU CASKIN2 (11723855_a_at) / Fold change /veh CASKIN2 (11723855_a_at) / RFU LOC730098 (11760151_x_at) / Fold change /veh LOC730098 (11760151_x_at) / RFU OR4N2 (11742367_at) / Fold change /veh OR4N2 (11742367_at) / RFU PRRT2 (11749266_a_at) / Fold change /veh PRRT2 (11749266_a_at) / RFU SNX32 (11753110_a_at) / Fold change /veh SNX32 (11753110_a_at) / RFU CDHR5 (11726645_a_at) / Fold change /veh CDHR5 (11726645_a_at) / RFU RCAN1 (11760418_a_at) / Fold change /veh RCAN1 (11760418_a_at) / RFU FAM167A (11723789_a_at) / Fold change /veh FAM167A (11723789_a_at) / RFU FAM26E (11764081_at) / Fold change /veh FAM26E (11764081_at) / RFU ISYNA1 (11749810_s_at) / Fold change /veh ISYNA1 (11749810_s_at) / RFU ACY1 (11761880_at) / Fold change /veh ACY1 (11761880_at) / RFU 11764098_at / Fold change /veh 11764098_at / RFU SAMD14 (11745864_x_at) / Fold change /veh SAMD14 (11745864_x_at) / RFU NPB (11741838_a_at) / Fold change /veh NPB (11741838_a_at) / RFU TMPRSS6 (11731388_a_at) / Fold change /veh TMPRSS6 (11731388_a_at) / RFU KRTAP10-2 (11738614_at) / Fold change /veh KRTAP10-2 (11738614_at) / RFU ARHGAP8 /// PRR5-ARHGAP8 (11727945_x_at) / Fold change /veh ARHGAP8 /// PRR5-ARHGAP8 (11727945_x_at) / RFU KRTAP5-7 /// NADSYN1 (11734609_at) / Fold change /veh KRTAP5-7 /// NADSYN1 (11734609_at) / RFU RASL12 (11751679_a_at) / Fold change /veh RASL12 (11751679_a_at) / RFU CDKN2B (11736163_a_at) / Fold change /veh CDKN2B (11736163_a_at) / RFU PRF1 (11729649_at) / Fold change /veh PRF1 (11729649_at) / RFU, ZNF638 /// ZNF638-IT1 / Fold change vs veh, ZNF638 /// ZNF638-IT1 / RFU, PANK3 / Fold change vs veh, PANK3 / RFU, SH3YL1 / Fold change vs veh, SH3YL1 / RFU, ZEB2 / Fold change vs veh, ZEB2 / RFU, NRIP1 / Fold change vs veh, NRIP1 / RFU, PTTG1IP / Fold change vs veh, PTTG1IP / RFU, CAPN2 / Fold change vs veh, CAPN2 / RFU, MED14 / Fold change vs veh, MED14 / RFU, SNORA58 / Fold change vs veh, SNORA58 / RFU, C1orf63 / Fold change vs veh, C1orf63 / RFU, LRRFIP1 / Fold change vs veh, LRRFIP1 / RFU, NDUFAF7 / Fold change vs veh, NDUFAF7 / RFU, SLC12A2 / Fold change vs veh, SLC12A2 / RFU, IBTK / Fold change vs veh, IBTK / RFU, ESF1 / Fold change vs veh, ESF1 / Fold change vs veh, TMEM50B / RFU, TAOK1 / Fold change vs veh, TAOK1 / RFU, ACBD3 / Fold change vs veh, ACBD3 / RFU, TMA16 / Fold change vs veh, TMA16 / RFU, RWDD3 / Fold change vs veh, RWDD3 / RFU, BCAT1 / Fold change vs veh, BCAT1 / RFU, EDEM3 / Fold change vs veh, EDEM3 / RFU, TMEM33 / Fold change vs veh, TMEM33 / RFU, WDR75 / Fold change vs veh, WDR75 / RFU, AHCTF1 / Fold change vs veh, AHCTF1 / RFU, TFRC / Fold change vs veh, TFRC / RFU, ZDHHC17 / Fold change vs veh, ZDHHC17 / RFU, NOM1 / Fold change vs veh, NOM1 / RFU, ARL8B / Fold change vs veh, ARL8B / RFU, ZBTB11 / Fold change vs veh, ZBTB11 / RFU, TAMM41 / Fold change vs veh, TAMM41 / RFU, KIAA1704 /// LOC100996395 / Fold change vs veh, KIAA1704 /// LOC100996395 / RFU, ING1 / Fold change vs veh, ING1 / RFU, TRMT61B / Fold change vs veh, TRMT61B / RFU, FUBP3 / Fold change vs veh, FUBP3 / RFU, TP53 / Fold change vs veh, TP53 / RFU, TNKS2 / Fold change vs veh, TNKS2 / RFU, ZFP14 / Fold change vs veh, ZFP14 / RFU, ACTR2 / Fold change vs veh, ACTR2 / RFU, PPP3R1 / Fold change vs veh, PPP3R1 / RFU, PIK3R1 / Fold change vs veh, PIK3R1 / RFU, HNRNPA1 / Fold change vs veh, HNRNPA1 / RFU, RNF170 / Fold change vs veh, RNF170 / RFU, ZNF28 / Fold change vs veh, ZNF28 / RFU, RNGTT / Fold change vs veh, RNGTT / RFU, OGT / Fold change vs veh, OGT / RFU, BRD1 / Fold change vs veh, BRD1 / RFU, MARS / Fold change vs veh, MARS / RFU, ZNF655 / Fold change vs veh, ZNF655 / RFU, FAHD1 / Fold change vs veh, FAHD1 / RFU, BDP1 / Fold change vs veh, BDP1 / RFU, LRRCC1 / Fold change vs veh, LRRCC1 / RFU, ARID1A / Fold change vs veh, ARID1A / RFU, ZNF146 / Fold change vs veh, ZNF146 / RFU, ZNF330 / Fold change vs veh, ZNF330 / RFU, GPN3 / Fold change vs veh, GPN3 / RFU, C9orf123 / Fold change vs veh, C9orf123 / RFU, N4BP2L2 / Fold change vs veh, N4BP2L2 / RFU, ARFIP1 / Fold change vs veh, ARFIP1 / RFU, FAM179B / Fold change vs veh, FAM179B / RFU, BCL10 / Fold change vs veh, BCL10 / RFU, UHRF1BP1L / Fold change vs veh, UHRF1BP1L / RFU, BET1 / Fold change vs veh, BET1 / RFU, CNOT2 / Fold change vs veh, CNOT2 / RFU, ZNF268 / Fold change vs veh, ZNF268 / Fold change vs veh, ZNF507 / RFU, DGCR2 / Fold change vs veh, DGCR2 / RFU, WDSUB1 / Fold change vs veh, WDSUB1 / Fold change vs veh, HSP90B1 /// MIR3652 / RFU, ADSS / Fold change vs veh, ADSS / RFU, GK / Fold change vs veh, GK / RFU, ZNF148 / Fold change vs veh, ZNF148 / RFU, TAF9 / Fold change vs veh, TAF9 / RFU, SLC1A5 / Fold change vs veh, SLC1A5 / RFU, SLMO2 / Fold change vs veh, SLMO2 / RFU, ABCC4 / Fold change vs veh, ABCC4 / RFU, LOC101060439 /// RAP1B / Fold change vs veh, LOC101060439 /// RAP1B / RFU, RFX7 / Fold change vs veh, RFX7 / RFU, GTPBP10 / Fold change vs veh, GTPBP10 / RFU, CNEP1R1 / Fold change vs veh, CNEP1R1 / RFU, BIVM-ERCC5 /// ERCC5 / Fold change vs veh, BIVM-ERCC5 /// ERCC5 / RFU, ILF3 / Fold change vs veh, ILF3 / RFU 11762660_at / Fold change /veh 11762660_at / RFU VCAN (11757783_s_at) / Fold change /veh VCAN (11757783_s_at) / RFU DDX43 (11728927_at) / Fold change /veh DDX43 (11728927_at) / RFU KRT8 (11758188_x_at) / Fold change /veh KRT8 (11758188_x_at) / RFU NKD1 (11759106_at) / Fold change /veh NKD1 (11759106_at) / RFU SRD5A1 (11742802_a_at) / Fold change /veh SRD5A1 (11742802_a_at) / RFU TPSAB1 /// TPSB2 (11721975_s_at) / Fold change /veh TPSAB1 /// TPSB2 (11721975_s_at) / RFU GSTM3 (11746129_a_at) / Fold change /veh GSTM3 (11746129_a_at) / RFU IL23R (11737362_x_at) / Fold change /veh IL23R (11737362_x_at) / RFU TMEM51 (11727254_a_at) / Fold change /veh TMEM51 (11727254_a_at) / RFU PIWIL2 (11732686_x_at) / Fold change /veh PIWIL2 (11732686_x_at) / RFU ORM1 (11744905_x_at) / Fold change /veh ORM1 (11744905_x_at) / RFU CCDC152 (11743942_at) / Fold change /veh CCDC152 (11743942_at) / RFU ECM1 (11717891_a_at) / Fold change /veh ECM1 (11717891_a_at) / RFU IL23R (11748794_a_at) / Fold change /veh IL23R (11748794_a_at) / RFU TNFAIP8L3 (11732012_x_at) / Fold change /veh TNFAIP8L3 (11732012_x_at) / RFU MBOAT4 (11741988_at) / Fold change /veh MBOAT4 (11741988_at) / RFU 11764193_at / Fold change /veh 11764193_at / RFU TMEM53 (11763286_at) / Fold change /veh TMEM53 (11763286_at) / RFU MAGEB2 (11727129_at) / Fold change /veh MAGEB2 (11727129_at) / RFU TMEM200A (11744735_a_at) / Fold change /veh TMEM200A (11744735_a_at) / RFU CCDC152 (11751479_a_at) / Fold change /veh CCDC152 (11751479_a_at) / RFU FAM211A (11726209_a_at) / Fold change /veh FAM211A (11726209_a_at) / RFU RGS16 (11746705_a_at) / Fold change /veh RGS16 (11746705_a_at) / RFU VCAN (11755009_s_at) / Fold change /veh VCAN (11755009_s_at) / RFU RHOB (11743442_s_at) / Fold change /veh RHOB (11743442_s_at) / RFU RGS16 (11720943_a_at) / Fold change /veh RGS16 (11720943_a_at) / RFU RGS16 (11720944_at) / Fold change /veh RGS16 (11720944_at) / RFU, VPS4B / Fold change vs veh, VPS4B / RFU, CREB1 / Fold change vs veh, CREB1 / RFU, DNAJC13 / Fold change vs veh, DNAJC13 / RFU, GNAQ / Fold change vs veh, GNAQ / RFU, CDK5R1 / Fold change vs veh, CDK5R1 / RFU, ZRANB3 / Fold change vs veh, ZRANB3 / RFU, CUL4A / Fold change vs veh, CUL4A / RFU, CCNY / Fold change vs veh, CCNY / RFU, UFL1 / Fold change vs veh, UFL1 / RFU, COG3 / Fold change vs veh, COG3 / RFU, DIAPH2 / Fold change vs veh, DIAPH2 / RFU, SKA2 / Fold change vs veh, SKA2 / RFU, AFF3 / Fold change vs veh, AFF3 / RFU, LMF1 / Fold change vs veh, LMF1 / RFU, IPO11 / Fold change vs veh, IPO11 / RFU, DFFB / Fold change vs veh, DFFB / RFU, FOXP1 / Fold change vs veh, FOXP1 / RFU, CARD8 / Fold change vs veh, CARD8 / RFU, STRN3 / Fold change vs veh, STRN3 / RFU, ADK / Fold change vs veh, ADK / RFU, RASSF2 / Fold change vs veh, RASSF2 / RFU, WIPF1 / Fold change vs veh, WIPF1 / RFU, LARP1B / Fold change vs veh, LARP1B / RFU, RASA1 / Fold change vs veh, RASA1 / RFU, RB1 / Fold change vs veh, RB1 / RFU, PPFIA1 / Fold change vs veh, PPFIA1 / RFU, MAT2A / Fold change vs veh, MAT2A / RFU, CCT5 / Fold change vs veh, CCT5 / RFU, WDR92 / Fold change vs veh, WDR92 / RFU, CUX1 / Fold change vs veh, CUX1 / RFU, TTC7A / Fold change vs veh, TTC7A / RFU, TMEM135 / Fold change vs veh, TMEM135 / RFU, DEPTOR / Fold change vs veh, DEPTOR / RFU, CPM / Fold change vs veh, CPM / RFU, DNAJB6 / Fold change vs veh, DNAJB6 / RFU, CACNA2D3 / Fold change vs veh, CACNA2D3 / RFU, DTX4 / Fold change vs veh, DTX4 / RFU, TFCP2 / Fold change vs veh, TFCP2 / RFU, GMCL1 /// GMCL1P1 / Fold change vs veh, GMCL1 /// GMCL1P1 / RFU, AEBP2 / Fold change vs veh, AEBP2 / RFU, SNHG1 /// SNORD22 /// SNORD25 /// SNORD26 /// SNORD27 /// SNORD28 /// SNORD29 /// SNORD31 / Fold change vs veh, SNHG1 /// SNORD22 /// SNORD25 /// SNORD26 /// SNORD27 /// SNORD28 /// SNORD29 /// SNORD31 / Fold change (Aza/veh), C12orf56 (ProbeSet 11735607_a_at) / Fold change (ACY-1035/veh), C12orf56 (ProbeSet 11735607_a_at) / Fold change (Aza/veh), FGFR1OP (ProbeSet 11751329_s_at) / Fold change (ACY-1035/veh), FGFR1OP (ProbeSet 11751329_s_at) / Fold change (Aza/veh), VPS36 (ProbeSet 11739960_a_at) / Fold change (ACY-1035/veh), VPS36 (ProbeSet 11739960_a_at) / RFU SYPL1 (11715823_x_at) / Fold change /veh SYPL1 (11715823_x_at) / RFU IGFBP7 (11715501_s_at) / Fold change /veh IGFBP7 (11715501_s_at) / RFU REEP3 (11722064_at) / Fold change /veh REEP3 (11722064_at) / RFU IGLL1 (11728026_x_at) / Fold change /veh IGLL1 (11728026_x_at): dose or concentration left out as unconfirmed",
  "conditions": "MV-4-11 cells, 48 hours",
  "data": [
    {"smiles": "Nc1ccc(-c2cccs2)cc1NC(=O)c1ccc2c(c1)cc(C1CC1)n2CCN1CCOCC1", "note": "[ACY-1035]", "values": [
      {"measurement": "RFU CDKN2B (11736163_a_at)", "result": 9.39, "unit": "RFU"}
    ]}
  ]
}
